Laboratory results taken from PubChem BioAssay (NCI).
Where “and” joins values, the source holds several entries; their conditions need not be identical. Identical values can stand only once.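 Five concentrations, 48 hours, 96-well plates. The concentration for 50% growth inhibition is given as GI50. TGI: concentration producing complete growth inhibition.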

Tests used:
Assay in all cases: DTP human tumour cell line panel, 48 h
M14 melanoma = test system: M14 melanoma
IGROV1 ovarian = test system: IGROV1 ovarian
SK-MEL-2 melanoma = test system: SK-MEL-2 melanoma
DLD-1 colon = test system: DLD-1 colon
DMS 273 small cell lung = test system: DMS 273 small cell lung
SK-MEL-28 melanoma = test system: SK-MEL-28 melanoma
RPMI-8226 leukemia = test system: RPMI-8226 leukemia
OVCAR-4 ovarian = test system: OVCAR-4 ovarian
XF 498 CNS = test system: XF 498 CNS
BT-549 breast = test system: BT-549 breast
HOP-18 NSCLC = test system: HOP-18 NSCLC

Row | SMILES | TGI (M14 melanoma) [µM] | TGI (IGROV1 ovarian) | TGI (SK-MEL-2 melanoma) | TGI (DLD-1 colon) [µM] | TGI (DMS 273 small cell lung) [µM] | TGI (SK-MEL-28 melanoma) | TGI (RPMI-8226 leukemia) | TGI (OVCAR-4 ovarian) | TGI (XF 498 CNS) [µM] | TGI (BT-549 breast) [µM] | TGI (HOP-18 NSCLC) [µM] | GI50 (IGROV1 ovarian) [µM] | GI50 (SK-MEL-2 melanoma) [µM] | GI50 (RPMI-8226 leukemia) | GI50 (OVCAR-4 ovarian) [µM] | GI50 (M14 melanoma) [µM] | GI50 (SK-MEL-28 melanoma) [µM] | GI50 (BT-549 breast) [µM] | GI50 (HOP-18 NSCLC) [µM]
1 | O=C(/C=N/O)Nc1cccc(Cl)c1I | > 100 | > 100 µM | > 100 µM | > 100 | > 100 | > 100 µM | > 100 µM | > 100 µM | > 100 |  |  |  |  |  |  |  |  |  | 
2 | COc1cc(OC)c(OC)cc1/C=C\c1ccnc2ccccc12 | 38.9 | > 72.9 µM | 7.4 µM | > 100 |  | > 100 µM | 99.1 µM | > 100 µM |  | > 100 |  |  |  |  |  |  |  |  | 
3 | CCOc1ccccc1NC(=O)C1=C(C)NC(C)=C(C(=O)Nc2ccccc2OCC)C1c1ccc2c(c1)OCO2 | 78.2 | > 100 µM | 55.3 µM | > 100 |  | > 100 µM | > 100 µM | 76.2 µM | 49.6 |  |  |  |  |  |  |  |  |  | 
4 | CCOC(=O)c1cnc2c(ccc3ncccc32)c1OCC | > 100 | > 100 µM | > 100 µM | > 100 | > 100 | > 100 µM |  | > 100 µM |  |  | > 100 |  |  |  |  |  |  |  | 
5 | COc1ccc(S(=O)(=O)NNS(C)(=O)=O)cc1OC | > 100 | > 100 µM | > 100 µM | > 100 | > 100 |  | > 100 µM | > 100 µM | > 100 |  |  |  |  |  |  |  |  |  | 
6 | Clc1ccc(/C=C/c2csnn2)cc1 | > 100 | > 100 µM | > 100 µM | > 100 | > 100 | > 100 µM |  | > 100 µM | > 100 |  | > 100 |  |  |  |  |  |  |  | 
7 | Cc1ccc(-n2cc(/C(N)=N/O)c3ccccc3c2=O)cc1 | > 100 | > 100 µM |  |  | > 100 | > 100 µM | > 100 µM |  | > 100 |  |  |  |  |  |  |  |  |  | 
8 | Nc1nc2c(ncn2C2OC(CO)C(O)C2O)c(=O)[nH]1 (stereo not given) |  | > 100 µM and 170 µM | > 100 µM and 158 µM | 142 | 159 | > 100 µM and 265 µM | > 100 µM and 139 µM | > 100 µM and 215 µM |  |  | 300 | > 100 | > 100 | > 100 µM and 30.8 µM | > 100 |  |  |  | 
9 | Cc1cc2nc3c(C(OC4OC(CO)C(O)C(O)C4O)C(O)CO)nn(-c4ccc(F)cc4)c3nc2cc1C (stereo not given) | > 100 |  |  | > 100 |  | > 100 µM | > 100 µM | > 100 µM | > 100 |  |  |  |  |  |  |  |  |  | 
10 | O=C([CH-]C(=O)c1ccccc1)c1ccccc1.[CH2-]C.[CH2-]C.[Tl+3] | 68.5 | > 100 µM | > 92.4 µM |  |  | > 100 µM | > 66 µM | > 100 µM |  | > 100 | > 100 | 24.4 | 31.6 | 10.4 µM | 16.8 | 18.5 | 33.5 | 26.9 | 28.5
11 | O=S1(=O)CS(=O)(=O)OCCCCCO1 | > 100 | > 100 µM | > 100 µM | > 100 | > 100 | > 100 µM | > 100 µM | > 100 µM |  |  | > 100 |  |  |  |  |  |  |  | 
12 | Nc1cccc(C(=O)/C=C/c2ccccc2O)c1 | > 100 | > 100 µM | > 100 µM | > 100 | > 100 | > 100 µM | 39.3 µM |  | > 100 |  | > 100 |  |  |  |  |  |  |  | 
13 | Cc1cccc(NC(=O)CSc2nnc(-c3ccc(N=Cc4ccc(Cl)cc4)cc3)o2)c1 | > 100 |  | > 100 µM |  | > 100 | > 100 µM | > 100 µM | > 100 µM | > 100 |  | > 100 |  |  |  |  |  |  |  | 
14 | NC(=O)C1C(=O)Oc2cccnc21 (stereo not given) | > 100 | > 100 µM |  | > 100 | > 100 | > 100 µM | > 100 µM |  | > 100 |  | > 100 |  |  |  |  |  |  |  | 
15 | c1ccc2c(c1)n1nnnc1c1nnnn21 | > 100 | > 100 µM | > 100 µM | > 100 | > 100 | > 100 µM | > 100 µM | > 100 µM | > 100 |  |  |  |  |  |  |  |  |  | 
16 | COc1ccc(/C(C#N)=C2/O/C(=N/N)C(c3ccc(OC)c(OC)c3)C2=O)cc1OC (stereo not given) | > 100 | > 100 µM | > 100 µM | > 100 | > 100 | > 100 µM | > 100 µM |  | > 100 |  |  |  |  |  |  |  |  |  | 
17 | Cc1c(C(=O)/C=C/c2ccc3c(c2)OCO3)[n+](=O)c2ccccc2n1[O-] | > 100 | > 100 µM |  | > 100 | 52.6 | > 100 µM | 69.3 µM | > 100 µM | 92.8 |  | > 100 |  |  |  |  |  |  |  | 
18 | COc1ccccc1CNCCCN1C(=O)c2ccc3c4c(ccc(c24)C1=O)C(=O)N(CCCNCCCCN)C3=O | 1.15 | 15.9 µM | 0.49 µM |  |  | 1.54 µM | 6.13 µM | 0.319 µM |  | 2.59 |  | 0.464 | 0.233 | 0.445 µM | 0.165 | 0.355 | 0.425 | 1.21 | 
19 | Cc1ccccc1NC(=O)C(=O)CC(=O)c1sc(-n2nc(-c3ccccc3)cc2-c2ccccc2)nc1C | > 100 | > 100 µM | > 100 µM | > 100 | > 100 |  | > 100 µM | > 100 µM |  |  |  |  |  |  |  |  |  |  | 
20 | COc1ccc(C2NC(c3ccc(OC)cc3)C(C)C(=O)C2C)cc1 (stereo not given) | > 100 | > 100 µM | > 100 µM | > 100 | > 100 | > 100 µM | > 100 µM | > 100 µM |  |  | > 100 |  |  |  |  |  |  |  | 
21 | CNc1ccc(CSc2ccc(C)cc2)cc1 | 32.6 | > 100 µM | > 100 µM |  |  | > 100 µM | 21.6 µM | > 100 µM |  | 23 |  | 13 | 38.5 | 1.52 µM | 7.44 | 13.6 | 20.3 | 3.08 | 
22 | CCOC(=O)C(=O)Nc1nc2ccc(OC)cc2s1 | > 100 | > 100 µM | > 100 µM | > 100 | > 100 | > 100 µM | > 100 µM | > 100 µM |  |  | > 100 |  |  |  |  |  |  |  | 
23 | Fc1cccc(C2ON=C(c3ccccc3)N2C23CC4CC(CC(C4)C2)C3)c1 (stereo not given) | > 10 | > 10 µM | > 10 µM |  |  | > 10 µM | > 10 µM | > 10 µM |  | > 10 |  |  |  |  |  |  |  |  | 
